# From paper PMC8350397, “GSK137, a potent small-molecule BCL6 inhibitor with in vivo activity, suppresses antibody responses in mice” (The Journal of Biological Chemistry, 2021)
# Entries after “also recorded” stand apart in the source; their conditions may differ.
# Columns and labels:
# Format in all cases: cell-based
# [1] = system: Farage, Karpas422 and VAL cells; test: Viability and cumulative cell number analysis, Farage, Karpas422, VAL; settings: 14 days
# Protocol: (§1) Farage cells were cultured in RPMI1640 (1×) + 20% heat-inactivated fetal bovine serum (FBS), ULA in Iscove's modified Dulbecco's medium + 20% FBS, whereas Karpas422 and VAL were cultured in RPMI1640 + 20% heat-inactivated FBS, all with the addition of 1% Glutamax and 1% sodium pyruvate.
# (§2) Farage, ULA, Karpas422, and VAL cells were seeded into T25 tissue culture flasks in a total volume of 7 mL per flask at densities of 5 x10^4, 7 x10^4, 5 x10^4, and 4 x10^4 cells/mL, respectively and incubated overnight at 37 °C and 5% CO2. Cells were then treated with a 3-point titration of GSK137 (0.1 µM, 1 µM, and 10 µM) throughout a 14-day time course. Treatments with multiple concentrations of BI3802 were also included for comparison (Farage and Karpas422 cells were treated with 0.01 µM, 0.1 µM, and 1 µM BI3802; ULA cells were treated with 0.1 µM and 1 µM BI3802; VAL cells were treated with 0.1 µM, 1 µM, and 10 µM BI3802). Viability (trypan blue exlcusion) and cumulative cell number were measured on a Vi-CELL XR 2.03 (Beckman Coulter, Brea, CA, USA) on day of seeding and on days 3, 6, 10, and 14.
# ULA cells = test: Viability and cumulative cell number analysis, ULA; settings: 14 days; for cell viability: GSK137 0.1-10 μM, BI3802 0.1 and 1 μM
# Protocol: as §1, §2
# [2] = target: T1, full-length human BCL6 binding to BCL6-binding domain of SMRT (residues 1292-1500) (Homo sapiens, UniProt P41182); test: NanoBRET cell assay in HEK293-WT cells
# T1 construct: Nano Luciferase fused at the N-terminus of full-length human BCL6; host or cells: HEK293-WT (ATCC CRL-1573)
# Excerpt: Plasmids encoding Nano Luciferase fused at the N-terminus of full-length human BCL6 and encoding Halo tag fused at the C-terminus of the BCL6 binding domain (1292-1500) of human SMRT co-repressor were generated under contract by Promega Corporation. HEK293-WT cells were from ATCC (CRL-1573). Fugene HD transfection reagent (catalogue number E2311), HaloTag NanoBRET 618 ligand (catalogue number G980B) and NanoBRET Nano-Glo substrate (catalogue number N157B) were from Promega Ltd.
# Assay day 1 (Transient Transfection): 8 x 10^6 HEK293-WT cells per T75 flask (one per compound plate), were transfected with mix comprising 10 µg BCL6 DNA, 10 µg domain SMRT DNA, 1 mL Opti-MEM and 60 µL FuGene (added last), incubating at room temperature for 10 mins prior to addition to flask. The flask was incubated for 20-24 hours at 37 °C and 5% CO2. Assay day 2 (Cell plating): Cells were detached, spun and re-suspended at 2 x 10^5 cells/mL, HaloTag NanoBRET 618 ligand at 1:1000 dilution was added and plated at 40 µL / well with test compounds prepared as above, a duplicate plate without HaloTag ligand was used as background control. The plates were incubated at 37 °C and 5% CO2 overnight (18-24 hours). Assay day 3 (Assay): 1:1000 NanoGlo substrate final was added to all wells, shaken for 30 seconds and luminescence then read on an Envision plate reader. […]
# [3] = system: Farage, Karpas422 and VAL cells; test: Cell cycle analysis, Farage, Karpas422, VAL; settings: 2 or 6 days
# Protocol: Farage, ULA, KARPAS-422, and VAL cells were seeded into 6-well tissue culture dishes in a total volume of 6 mL at densities of 6.25 x10^3, 7.81 x10^3, 6.25 x10^3, and 1.56 x10^3 cells/mL, respectively and incubated overnight at 37 °C and 5% CO2. Cells were then treated with 0.1 µM, 1 µM, or 10 µM GSK137 or 1 µM BI3802 for 2 or 6 days at 37 °C and 5% CO2. Cell cycle analysis was performed using the Click-iT EdU Alexa Fluor 647 Flow Cytometry Assay Kit (Thermo Fisher Scientific, Waltham, MA, USA) following the manufacturer’s instructions, with volumes adjusted for a […] U-bottom plate, and with an approximately 1 hour treatment with 10 μM EdU. After EdU treatment, approximately 2x10^5 cells per well were transferred into a 96-well, non-tissue culture treated U-bottom plate and stained with 6.7µg/ml final FxCycle Violet Stain for 30 minutes incubation at room temperature. Cells were then analyzed on a flow cytometer (BD FACS Canto […] or LSR FortessaTM X-20 (Becton Dickinson, Franklin Lakes, NJ, USA)) with compensation each day using one cell line and data analyzed using FlowJo software (version 10.3). Percentages of cells in each phase of the cell cycle were then averaged across technical replicates.
# [4] = target: T2, BCL6 in Farage DLBCL cells (Homo sapiens, UniProt P41182); test: Western blot for BCL6 protein degradation; settings: 1 μM for 24 h
# T2 construct: endogenous in cells; host or cells: Farage DLBCL cells
# Protocol: Cell pellets were lysed in RIPA buffer containing protease/phosphatase inhibitor cocktail and benzonase, protein concentration determined and samples prepared in reducing conditions and 20 µg of protein loaded per lane. Proteins were then transferred onto a nitrocellulose membrane and probed with rabbit BCL6 antibody (Abcam, Cambridge, UK; ab33901) and mouse GAPDH antibody (Abcam; ab9484) at 1:2000 dilution overnight at 4°C. Blots were probed for 1 hour at room temperature with secondary antibodies (goat anti-rabbit LI-COR, 926-32211 and goat anti-mouse LI-COR, 926-68070) at 1:10,000 dilution). Images were obtained on a LI-COR Odyssey CLx Infrared Imaging System using Image Studio software (Version 5.2).
Structure (SMILES),cumulative cell number [1],cumulative cell number (ULA cells),cell viability (ULA cells),activity in cellular assay compared with reported potency ([2]; cellular),fraction of cells in G1 [3],degradation of intracellular BCL6 protein [4],cell viability ([1]; GSK137 0.1-10 μM),"IC50 ([2]; live cells, full-length human BCL6 / SMRT BBD, read-out: pIC50 Human NanoBret cell (converted)) [µM]"
"CNC(=O)COc1cc2cc(Nc3nc(N4C[C@H](C)C[C@H](C)C4)ncc3Cl)ccc2n(C)c1=O [BI3802, reference compound]",showed some response,most sensitive,only appreciably reduced viability in ULA at the highest concentration used,consistent with the previously reported potency,only minor increase in the fraction of cells in G1,degraded BCL6,–,–
"Cc1ncccc1[C@H]1C[C@@H](c2cccc3nc(N)ccc23)Nc2c(F)cnn21 [GSK137, 5-((5S,7R)-3-Fluoro-7-(2-methylpyridin-3-yl)-4,5,6,7-tetrahydropyrazolo[1,5-a]pyrimidin-5-yl)quinolin-2-amine]",no detectable change,–,no major change in cell viability; also recorded: only minimal reduction in viability,–,only minor increase in the fraction of cells in G1,did not show this activity,no major change in cell viability; also recorded: no detectable change,0.0501
